Source: patent US8030453B2, “Methods of making an antibody that binds a chemerin polypeptide” (Euroscreen S.A., priority 2001, dated 2011)
Read-outs that look alike come from different tables or passages of the source. Peptide text beside a SMILES is read from it.

What was measured:
ChemerinR = target: T1, ChemerinR (Homo sapiens, UniProt Q99788); experiment: Calcium flux - Aequoscreen assay; format: cell-based
T1 construct: This fragment was subcloned into the pcDNA3 (Invitrogen) vector; expressed in transfected cells; CHO-K1 elsewhere)
T1 sequence (Q99788 3-373): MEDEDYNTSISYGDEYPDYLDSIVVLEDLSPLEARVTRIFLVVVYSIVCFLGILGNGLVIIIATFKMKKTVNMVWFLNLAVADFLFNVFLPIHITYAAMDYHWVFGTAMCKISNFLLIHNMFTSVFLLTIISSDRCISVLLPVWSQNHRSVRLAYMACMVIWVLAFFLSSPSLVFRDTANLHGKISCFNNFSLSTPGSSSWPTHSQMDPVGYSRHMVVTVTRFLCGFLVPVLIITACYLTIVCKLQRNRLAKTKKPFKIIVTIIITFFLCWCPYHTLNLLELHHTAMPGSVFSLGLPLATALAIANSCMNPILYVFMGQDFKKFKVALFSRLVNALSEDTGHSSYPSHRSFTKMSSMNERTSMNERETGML
Method: ChemerinR expressing clones were transfected to coexpress mithochondrial apoaequorin and Gα16. Cells in mid-log phase, grown in media without antibiotics 18 hours prior to the test, were detached by gentle flushing with PBS-EDTA (5 mM EDTA), recovered by centrifugation and resuspended in “BSA medium” (DMEM/HAM's F12 with HEPES, without phenol red+0.1% BSA). Cells were then counted, centrifuged and resuspended in a 15 ml Falcon tube at a concentration of 1×10^6 cells/ml.
The Falcon tube, wrapped in aluminium foil, was then placed on a vertical rotating wheel and incubated at room temperature (temperature should be maintained below 22° C.) overnight in order to reconstitute active aequorin.
Cells were then diluted 1/10 in “BSA-medium” and incubated as described above for 60 min. Reference ligands were diluted in “BSA-medium” and distributed in a 96-well plate (50 μl/well). For each measurement, 50 μl of cells (i.e. 5 000 cells) were injected into each well of the plate containing the ligands, and the emitted light is recorded (FDSS, Hamamatsu) during 20 seconds following cells injection. Results were expressed as Relative Light Units (RLU).
The intensity of the emitted light was integrated, yielding for each well one value representative of the emitted light.

[1] = system: monocyte-derived immature dendritic cells and macrophages; experiment: Ca2+ mobilization (FURA-2) in primary cells; format: cell-based, human; details: similar for macrophages, Chemerin 30 nM
Method: (§1) Monocyte-derived DCs were generated by GM-CSF (50 ng/ml) and IL-13 (20 ng/ml) stimulation as previously described (17). Maturation of DCs was achieved following stimulation with 100 ng/ml LPS. Macrophages were obtained by incubating monocytes in Petriperm dishes (Haereus) for 6 days in RPMI supplemented with 10% FCS and 10 ng/ml MCSF. Cell migration was evaluated using a 48-well microchemotaxis chamber technique as described (18). For Ca2+ mobilization assays, monocyte-derived DCs or macrophages (10^7 cells/ml in HBSS without phenol red but containing 0.1% BSA) were loaded with 5 μM FURA-2 (Molecular Probes) for 30 min at 37° C. in the dark. The loaded cells were washed twice, resuspended at 10^6 cells/ml, kept for 30 min at 4° C. in the dark with or without the blocking 4C7 monoclonal antibody (10 μg/ml), and transferred into the quartz cuvette of a luminescence spectrometer LS50B (PerkinElmer).

[2] = system: human monocyte-derived dendritic cells and macrophages; experiment: chemotaxis (48-well microchemotaxis chamber) of primary cells; format: cell-based
Method: as §1

[3] = system: human chemerinR in CHO-K1 cells; experiment: intracellular cascade assays (calcium release, cAMP accumulation, p42/p44 MAP kinase phosphorylation) in CHO/chemerinR cells; format: cell-based
[4] = system: C5a and C3a receptors, CRTH2, GPR1, other characterized and orphan receptors, most chemokine receptors; experiment: reactivity of related and other receptors to Chemerin; format: cell-based; details: purified human Chemerin
wild-type CHO-K1 cells = experiment: signalling assays on wild-type CHO-K1 cells; format: cell-based, hamster
[5] = target: T2, ChemerinR expressing CHO-K1 cells (Homo sapiens, UniProt Q99788); experiment: competition binding assay with 125I-[…] tracer; details: mean±s.e.m for 3 independent experiments
T2 construct: This fragment was subcloned into the pcDNA3 (Invitrogen) vector; expressed in transfected cells; host or cells: CHO-K1
T2 sequence (Q99788 3-373): T1 sequence (Q99788 3-373)
Method: ChemerinR expressing CHO-K1 cells were collected from plates with PBS supplemented with 5 mM EDTA, gently pelleted for 2 min at 1000×g, and resuspended in binding buffer (50 mM HEPES, pH 7.4, 1 mM CaCl2, 5 mM MgCl2, 0.5% BSA). […] Total binding was measured in the absence of competitor, and nonspecific binding was measured in the presence of a 100-fold excess of unlabeled ligand. Samples were incubated for 90 min at 27° C. and then bound tracer was separated by filtration through GF/B filters presoaked in 0.5% BSA. Filters were counted in a […]-scintillation counter. Binding parameters were determined with the PRISM software (Graphpad Software) using nonlinear regression applied to a one-site competition model.

[6] = target: T3, human ChemerinR (ChemR23) expressed in CHO-K1 cells (Homo sapiens, UniProt Q99788); experiment: aequorin-based intracellular Ca2+ release assay; format: cell-based
T3 construct: This fragment was subcloned into the pcDNA3 (Invitrogen) vector; expressed in transfected cells; host or cells: CHO-K1 (co-expressing mitochondrial apoaequorin and Galpha16)
T3 sequence (Q99788 3-373): T1 sequence (Q99788 3-373)
Method: Briefly, ChemerinR-expressing clones are transfected to coexpress mitochondrial apoaequorin and Gα16. Cells are incubated with 5 μM Coelenterazine H (Molecular Probes) for 4 hours at room temperature, washed in DMEM-F12 culture medium and resuspended at a concentration of 0.5×10^6 cells/ml. Cells are then mixed with test agonist peptides and light emission by the aequorin is recorded with a luminometer for 30 sec. Results are expressed as Relative Light Units (RLU). Controls include assays using membranes isolated from cells not expressing ChemerinR (mock-transfected), in order to exclude possible non-specific effects of the candidate compound.
ChemerinR-expres sing clones have been obtained by transfection of CHO-K1 cells to coexpressing mitochondrial apoaequorin and Gα16, limiting dilution and selection by northern blotting. Positive clones were used for screening with human ovarian cancer ascites extracts prepared as described above. […] Briefly, cells were collected from plates in PBS containing 5 mM EDTA, pelleted and resuspended at 5×10^6 cells/ml in DMEM-F12 medium. Cells were incubated with 5 μM Coelenterazine H (Molecular Probes) for 4 hours at room temperature. Cells were then washed in DMEM-F12 medium and resuspended at a concentration of 0.5×10^6 cells/ml. Cells were then mixed with test agonist peptides or plates containing tissue extracts and the light emission was recorded for 30 sec using a Microlumat luminometer (Perkin Elmer). Results are expressed as Relative Light Units (RLU).

[7] = 100 nM; culture medium or conditioned media of CHO-K1, Cos-7 or HEK293 cells
Method: In order to investigate whether proteolytic activation of prochemerin is performed intracellularly in the secretory pathway, or is an extracellular process, potentially regulated by the activation of extracellular proteases, we tested the activation of human purified prochemerin in the medium of cultured cells and conditioned media.

B16F0 melanoma cell line = experiment: in vitro proliferation of transfected B16F0 cells (BrdU, cell cycle, cell counting); format: cell-based, mouse; details: expression of Chemerin in B16F0 cells
Method: (§2) B16-F0 melanoma cells (ATCC) were transfected with the pEFIN3-mouse chemerin plasmid using FuGene6, and selected with 800 μg/ml G418. Clones were characterized by assaying the conditioned medium on chemerinRexpres sing cells. In vitro proliferation rate was determined by BrdU incorporation as described30. For in vivo studies, cells were washed twice with PBS, and grafted (6×10^5 cells in 0.1 ml PBS) subcutaneously into the back of 10-week-old C57B16 mice (5 to 11 mice per group, Harlan, The Netherlands). Perpendicular tumor diameters (D and d) were measured every 2 days, and the volume was estimated as V=π(d/2)(D/2)(d/2). Statistical analysis was performed by using the unpaired non parametric Mann-Whitney test. For microscopic analysis, tumors were embedded in OCT, snap-frozen in −80° C. isopentane and cut at 12 μm. Sections were stained with hematoxylin-eosin (HE) for routine analysis. All animal procedures were approved by the ethical committee of the Medical School of the Universite Libre de Bruxelles.

B16-F0 melanoma cells = experiment: B16-F0 melanoma model, subcutaneous graft in C57Bl6 mice; format: in vivo, mouse
Method: as §2

**Q.** Which EC50 (ChemerinR; read-out: EC50) does the source give for `CC(C)[C@H](NC(=O)[C@@H](N)Cc1ccc(O)cc1)C(=O)N1CCC[C@H]1C(=O)NCC(=O)N[C@@H](CCC(N)=O)C(=O)N[C@@H](Cc1ccccc1)C(=O)N[C@@H](C)C(=O)N[C@@H](Cc1ccccc1)C(=O)N[C@@H](CO)C(=O)O` (H-YVPGQFAFS-OH; N-terminus and C-terminus assumed) here?
**A.** The EC50 was 43.8 nM.

**Q.** Which results are given for “recombinant Chemerin: human recombinant Chemerin expressed in CHO-K1 cells, C-terminally truncated after serine 157 (137 amino acids)”?
**A.** intracellular Ca2+ levels [1]: increased; concentration of maximal chemotactic activity ([2]; immature dendritic cells): 1 nM; in vitro migration ([2]; macrophages and immature dendritic cells): promoted in vitro migration; chemotaxis ([2]; mature dendritic cells): no chemotaxis; concentrations causing intracellular calcium release, inhibition of cAMP accumulation, phosphorylation of p42 and p44 MAP kinases [3]: low nanomolar concentrations; reactivity of other receptors [4]: totally unreactive; activity on wild-type CHO-K1 cells (wild-type CHO-K1 cells): No activity

**Q.** For `C[C@H](NC(=O)[C@H](Cc1ccccc1)NC(=O)[C@H](CCC(N)=O)NC(=O)CNC(=O)[C@@H]1CCCN1C(=O)[C@H](Cc1ccccc1)NC(=O)[C@@H](N)Cc1ccc(O)cc1)C(=O)N[C@@H](Cc1ccccc1)C(=O)N[C@@H](CC(=O)O)C(N)=O` (H-YFPGQFAFD-NH2; N-terminus assumed), which EC50 (ChemerinR) is on record?
**A.** Its EC50 is 4.3 nM.

**Q.** Which Ki ([5]; Ki) does the source give for `C[C@H](NC(=O)[C@H](Cc1ccccc1)NC(=O)[C@H](CCC(N)=O)NC(=O)CNC(=O)[C@@H]1CCCN1C(=O)[C@H](Cc1ccccc1)NC(=O)[C@H](Cc1ccccc1)NC(=O)[C@H](Cc1ccccc1)NC(=O)[C@H](CO)NC(=O)[C@H](Cc1c[nH]cn1)NC(=O)[C@@H](N)Cc1ccc(O)cc1)C(=O)N[C@@H](Cc1ccccc1)C(=O)N[C@@H](CO)C(=O)O` (H-YHSFFFPGQFAFS-OH; N-terminus and C-terminus assumed) here?
**A.** The Ki was 12.1 ± 4.97 nM.

**Q.** What about the Ki ([5]; pKi) of the same molecule?
**A.** The Ki was 11.2 nM.

**Q.** And the EC50 [6]?
**A.** Its EC50 is 28 nM.

**Q.** With Pertussis toxin [reference compound] as the molecule, how does the “effect on Chemerin-induced migration” value ([2]; macrophages and dendritic cells, Pertussis toxin 3 μg/ml, 4C7 10 μg/ml) read?
**A.** The value was “completely abolished”.

**Q.** What about the “effect on Chemerin signalling effects” value ([3]; pretreatment) of the same molecule?
**A.** Its value is “inhibited”.

**Q.** With `CC(C)C[C@H](NC(=O)[C@@H](N)Cc1ccccc1)C(=O)N1CCC[C@H]1C(=O)NCC(=O)N[C@@H](CCC(N)=O)C(=O)N[C@@H](Cc1ccccc1)C(=O)N[C@@H](C)C(=O)N[C@@H](Cc1ccccc1)C(=O)N[C@@H](CO)C(=O)O` (H-FLPGQFAFS-OH; N-terminus and C-terminus assumed) as the molecule, how does the EC50 (ChemerinR) read?
**A.** The EC50 was 29.1 nM.

**Q.** Which EC50 (ChemerinR) does the source give for `CC(C)C[C@H](N)C(=O)N[C@@H](Cc1ccccc1)C(=O)N1CCC[C@H]1C(=O)NCC(=O)N[C@@H](CCC(N)=O)C(=O)N[C@@H](Cc1ccccc1)C(=O)N[C@@H](C)C(=O)N[C@@H](Cc1ccccc1)C(=O)N[C@@H](CO)C(=O)O` (H-LFPGQFAFS-OH; N-terminus and C-terminus assumed) here?
**A.** Its EC50 is 66.3 nM.

**Q.** With `CC[C@H](C)[C@H](N)C(=O)N[C@@H](Cc1ccccc1)C(=O)N1CCC[C@H]1C(=O)NCC(=O)N[C@@H](CCC(N)=O)C(=O)N[C@@H](Cc1ccccc1)C(=O)N[C@@H](C)C(=O)N[C@@H](Cc1ccccc1)C(=O)N[C@@H](CO)C(=O)O` (H-IFPGQFAFS-OH; N-terminus and C-terminus assumed) as the molecule, how does the EC50 (ChemerinR) read?
**A.** Its EC50 is 25.8 nM.

B1: prochemerin: unprocessed form of the protein retaining the six C-terminal aminoacids (143 amino acids) (protein, listed as Homo sapiens)
chain: ELTEAQRRGLQVALEEFHKHPPVQWAFQETSVESAVDTPFPAGIFVRLEFKLQQTSCRKRDWKKPECKVRPNGRKRKCLACIKLGSEDKVLGRLVHCPIETQVLREAEEHQETQCLRVQRAGEDPHSFYFPGQFAFSKALPRS
**Q.** For B1, which EC50 ([6]; CHO cells expressing ChemerinR, aequorin assay, read-out: EC50 for activation of ChemerinR) is on record?
**A.** The EC50 was 393 ± 116 nM.

**Q.** And the EC50 ([6]; truncated Chemerin peptides, values in nM, read-out: Mean EC50)?
**A.** The EC50 was 393 ± 116 nM.

**Q.** And the “conversion into a form active on ChemerinR” value [7]?
**A.** Its value is “fully converted”.

**Q.** And the “activity on wild-type CHO-K1 cells” value (wild-type CHO-K1 cells)?
**A.** Its value is “No activity”.

B2: mouse Chemerin: mouse Chemerin expressed by B16F0 melanoma cells transfected with a bicistronic expression vector containing the mouse Chemerin cDNA (protein)
chain: EPELSETQRRSLQVALEEFHKHPPVQLAFQEIGVDRAEEVLFSAGTFVRLEFKLQQTNCPKKDWKKPECTIKPNGRRRKCLACIKMDPKGKILGRIVHCPILKQGPQDPQELQCIKIAQAGEDPHGYFLPGQFAFSRALRTK
**Q.** Which “growth rate of the cell lines” value (B16F0 melanoma cell line) does the source give for B2 here?
**A.** The value was “did not modify the growth rate”.

**Q.** What about the “average reduction of size of developing tumors” value (B16-F0 melanoma cells; 21-24 days after the graft of Chemerin-expressing cells vs control) of the same molecule?
**A.** Its value is 70%.

**Q.** What about the “mice that did not develop tumors” value (B16-F0 melanoma cells; three series combined, up to four weeks after graft, 0/24 in control group, p<0.05) of the same molecule?
**A.** Its value is 5 out of 24.
